Measurements as given in ChEMBL document CHEMBL1146295, “An efficient synthesis of quinoxaline derivatives from 4-chloro-4-deoxy-alpha-D-galactose and their cytotoxic activities” (Bioorg Med Chem Lett, 2007).
In brackets after ≈: the same amount, converted by molar mass.

Test: Cytotoxicity against human Ec9706 cells after 48 hrs by MTT assay
Format: functional, cell-based
Conditions: EC9706, 48 h

Compound | IC50 [µg/mL]
COC(OC)C1OC(C)(C)OC1Cc1cnc2ccc([N+](=O)[O-])cc2n1 (stereo unspecified) | 69.2 (≈ 190 µM)
COC(OC)C1OC(C)(C)OC1Cc1cnc2ccc(Cl)cc2n1 (stereo unspecified) | 30.5 (≈ 86.4 µM)
COC(OC)C1OC(C)(C)OC1Cc1cnc2ccccc2n1 (stereo unspecified) | > 100
COC(OC)C1OC(C)(C)OC1Cc1cnc2cc(C(=O)c3ccccc3)ccc2n1 (stereo unspecified) | 80 (≈ 189 µM)
COC(OC)C1OC(C)(C)OC1Cc1cnc2cc(Cl)ccc2n1 (stereo unspecified) | 30.5 (≈ 86.4 µM)
COC(OC)C1OC(C)(C)OC1Cc1cnc2ccc(C(=O)c3ccccc3)cc2n1 (stereo unspecified) | 80 (≈ 189 µM)
